The results in this text go back to patent US10259810B2, “N-sulfonylated pyrazolo[3,4-b]pyridin-6-carboxamides and method of use” (AbbVie S.à.r.l., priority 2015, dated 2019).

pEC50: −log10 of the molar value.

Assay [1] deals with T1, ΔF508-CFTR (Homo sapiens, UniProt P13569, DEL508-508).
T1 construct: host or cells: CFBE41o-, doxycycline-inducible
Kind of assay: CFTR cell surface levels using HRP-tagged ΔF508-CFTR expressing CFBE cells, in the presence of a co-corrector. In kind it is cell-based. The conditions noted are these: HRP-tagged ΔF508-CFTR CFBE cells, in the presence of 3 μM co-corrector; for pEC50: read-out: EC50. The essentials: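 Chemiluminescent read-out of surface HRP (15 min, dark) after PBS washes. Activity is normalized as 100×(sample−DMSO)/(3 μM co-corrector alone−DMSO).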

The target in assay [2] is T1, ΔF508-CFTR. Kind of assay: CFTR cell surface levels using HRP-tagged ΔF508-CFTR expressing CFBE cells, intrinsic corrector capacity. The conditions noted are these: HRP-tagged ΔF508-CFTR expressing CFBE41o- cells, compound alone (intrinsic corrector capacity), 20 hours at 33° C.; for pEC50: read-out: EC50. It is filed as cell-based. On the set-up: % Activation: concentration or dose not given beside the values. In a few lines: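 Read-out: chemiluminescent HRP activity of ECL4-HRP-tagged ΔF508-CFTR at the cell surface, 15 min substrate in dark. Normalized as 100×(sample−DMSO)/(positive control−DMSO).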

T1 sequence (P13569 with tags, fused parts or gaps DEL508-508): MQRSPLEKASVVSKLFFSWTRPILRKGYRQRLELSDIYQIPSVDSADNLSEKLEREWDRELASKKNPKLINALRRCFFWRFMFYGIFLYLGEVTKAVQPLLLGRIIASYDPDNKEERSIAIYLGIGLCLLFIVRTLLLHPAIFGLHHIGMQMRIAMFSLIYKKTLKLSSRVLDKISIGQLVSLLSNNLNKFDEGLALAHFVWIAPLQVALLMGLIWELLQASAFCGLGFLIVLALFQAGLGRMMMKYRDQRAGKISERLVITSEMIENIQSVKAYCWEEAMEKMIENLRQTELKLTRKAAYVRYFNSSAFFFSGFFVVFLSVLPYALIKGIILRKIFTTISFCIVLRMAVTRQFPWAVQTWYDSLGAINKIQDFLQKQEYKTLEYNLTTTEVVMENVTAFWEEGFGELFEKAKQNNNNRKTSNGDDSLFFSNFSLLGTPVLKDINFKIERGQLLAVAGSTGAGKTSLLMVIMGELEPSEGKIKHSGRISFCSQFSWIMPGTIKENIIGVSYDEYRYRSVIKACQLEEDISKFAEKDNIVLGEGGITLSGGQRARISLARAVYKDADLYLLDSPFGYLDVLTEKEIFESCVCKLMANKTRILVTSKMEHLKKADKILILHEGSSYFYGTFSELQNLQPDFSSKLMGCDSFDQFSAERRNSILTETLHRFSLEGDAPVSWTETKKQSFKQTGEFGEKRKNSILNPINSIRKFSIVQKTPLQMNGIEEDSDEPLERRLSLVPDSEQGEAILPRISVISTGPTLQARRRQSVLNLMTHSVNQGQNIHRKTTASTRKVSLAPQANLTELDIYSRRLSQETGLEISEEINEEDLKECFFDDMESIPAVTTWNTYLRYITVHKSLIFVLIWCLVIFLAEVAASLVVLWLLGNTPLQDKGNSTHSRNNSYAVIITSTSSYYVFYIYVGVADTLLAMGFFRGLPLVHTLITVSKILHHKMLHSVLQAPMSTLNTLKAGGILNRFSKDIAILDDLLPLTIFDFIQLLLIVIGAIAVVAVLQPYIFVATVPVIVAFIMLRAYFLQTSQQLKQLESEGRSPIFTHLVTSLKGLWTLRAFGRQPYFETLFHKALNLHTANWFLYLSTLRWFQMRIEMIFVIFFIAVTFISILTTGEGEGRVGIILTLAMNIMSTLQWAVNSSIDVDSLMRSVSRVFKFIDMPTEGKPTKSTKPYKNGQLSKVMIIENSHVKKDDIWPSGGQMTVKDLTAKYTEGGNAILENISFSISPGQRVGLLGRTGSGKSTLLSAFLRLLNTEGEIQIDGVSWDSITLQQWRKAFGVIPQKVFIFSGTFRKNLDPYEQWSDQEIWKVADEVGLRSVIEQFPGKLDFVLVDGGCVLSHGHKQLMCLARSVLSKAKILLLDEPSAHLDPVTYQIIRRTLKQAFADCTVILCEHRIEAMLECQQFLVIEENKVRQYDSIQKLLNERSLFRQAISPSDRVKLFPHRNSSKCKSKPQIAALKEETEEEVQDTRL

`CC(=O)Nc1ccc(-c2cc(C(=O)NS(C)(=O)=O)nc3c2c(C(C)C)nn3C2CCCCC2)cc1` [Compound 79, 4-(4-acetamidophenyl)-1-cyclohexyl-N-(methanesulfonyl)-3-(propan-2-yl)-1H-pyrazolo[3,4-b]pyridine-6-carboxamide]: at ΔF508-CFTR [1], the “% Activation” value was 501.6% and the pEC50 is 6.26. In addition, on ΔF508-CFTR [2], the “% Activation” value is reported as 280.9% and the pEC50 was 5.91.
For `CC(C)c1nn(-c2cccc(N(C)C)c2)c2nc(C(=O)NS(C)(=O)=O)cc(-c3ccc(N4CCC(C#N)CC4)cc3)c12` [Compound 81, 4-[4-(4-cyanopiperidin-1-yl)phenyl]-1-[3-(dimethylamino)phenyl]-N-(methanesulfonyl)-3-(propan-2-yl)-1H-pyrazolo[3,4-b]pyridine-6-carboxamide], at ΔF508-CFTR [1], the “% Activation” value amounted to 646.44% and the pEC50 was 6.60. Also, on ΔF508-CFTR [2], the “% Activation” value was 495.8% and the pEC50 was 6.42.
Consider `COCCN(C)c1ccc(-c2cc(C(=O)NS(C)(=O)=O)nc3c2c(C(C)C)nn3-c2cccc(N(C)C)c2)cc1` [Compound 82, 1-[3-(dimethylamino)phenyl]-N-(methanesulfonyl)-4-{4-[(2-methoxyethyl)(methyl)amino]phenyl}-3-(propan-2-yl)-1H-pyrazolo[3,4-b]pyridine-6-carboxamide], for which, at ΔF508-CFTR [1], the “% Activation” value worked out at 535.93% and the negative-log EC50 (pEC50) was 6.42. In addition, on ΔF508-CFTR [2], the “% Activation” value is recorded as 366.27% and the negative-log EC50 (pEC50) was 6.33.
Taken in the same sequence, the figures for `CC(C)c1nn(-c2cccc(N(C)C)c2)c2nc(C(=O)NS(C)(=O)=O)cc(-c3ccc(N4CCC(C#N)CC4)nc3)c12` [Compound 83, 4-[6-(4-cyanopiperidin-1-yl)pyridin-3-yl]-1-[3-(dimethylamino)phenyl]-N-(methanesulfonyl)-3-(propan-2-yl)-1H-pyrazolo[3,4-b]pyridine-6-carboxamide] were 567.7%, 6.37, 391.5% and 6.26.
Take `COCCN(C)c1ccc(-c2cc(C(=O)NS(C)(=O)=O)nc3c2c(C(C)C)nn3-c2cccc(N(C)C)c2)cn1` [Compound 84, 1-[3-(dimethylamino)phenyl]-N-(methanesulfonyl)-4-{6-[(2-methoxyethyl)(methyl)amino]pyridin-3-yl}-3-(propan-2-yl)-1H-pyrazolo[3,4-b]pyridine-6-carboxamide]: at ΔF508-CFTR [1], the “% Activation” value was found to be 468.2% and the pEC50 is 6.39. For the same compound, at ΔF508-CFTR [2], the “% Activation” value stood at 311.7% and the pEC50 is 6.18.
For `COCCN(C)c1ccc(-c2cc(C(=O)NS(C)(=O)=O)nc3c2c(C(C)C)nn3-c2cccc(N3CCOCC3)c2)cc1` [Compound 88, N-(methanesulfonyl)-4-{4-[(2-methoxyethyl)(methyl)amino]phenyl}-1-[3-(morpholin-4-yl)phenyl]-3-(propan-2-yl)-1H-pyrazolo[3,4-b]pyridine-6-carboxamide] the same measures were 546.2%, 6.38, 389.73% and 6.32.
Taken in the same sequence, the figures for `CC(C)c1nn(-c2cccc(N(C)C)c2)c2nc(C(=O)NS(C)(=O)=O)cc(-c3ccc(N(C)C4CCOCC4)nc3)c12` [Compound 89, 1-[3-(dimethylamino)phenyl]-N-(methanesulfonyl)-4-{6-[methyl(oxan-4-yl)amino]pyridin-3-yl}-3-(propan-2-yl)-1H-pyrazolo[3,4-b]pyridine-6-carboxamide] were 609.48%, 6.40, 422.78% and 6.19.
Taken in the same sequence, the figures for `CCS(=O)(=O)NC(=O)c1cc(-c2ccc(N(C)C3CCOCC3)nc2)c2c(C(C)C)nn(C3CCCCC3)c2n1` [Compound 90, 1-cyclohexyl-N-(ethanesulfonyl)-4-{6-[methyl(oxan-4-yl)amino]pyridin-3-yl}-3-(propan-2-yl)-1H-pyrazolo[3,4-b]pyridine-6-carboxamide] were 384.95%, 6.41, 163.75% and 6.31.
As for `CCS(=O)(=O)NC(=O)c1cc(-c2ccc(N(C)C)nc2)c2c(C3CC3)nn(C3CCCCC3)c2n1` [Compound 92, 1-cyclohexyl-3-cyclopropyl-4-[6-(dimethylamino)pyridin-3-yl]-N-(ethanesulfonyl)-1H-pyrazolo[3,4-b]pyridine-6-carboxamide], at ΔF508-CFTR [1], the “% Activation” value is 367.67% and the pEC50 was 6.56. For the same compound, at ΔF508-CFTR [2], the “% Activation” value came out at 175.77% and the negative logarithm of the EC50 (pEC50) was 6.26.
For `CC(C)c1nn(C2CCCCC2)c2nc(C(=O)NS(C)(=O)=O)cc(-c3ccc(N4CCOC(C)(C)C4)nc3)c12` [Compound 94, 1-cyclohexyl-4-[6-(2,2-dimethylmorpholin-4-yl)pyridin-3-yl]-N-(methanesulfonyl)-3-(propan-2-yl)-1H-pyrazolo[3,4-b]pyridine-6-carboxamide] the same measures were 421.53%, 6.47, 193.5% and 6.21.
For `CC(C)c1nn(-c2cccc(N3CCOCC3)c2)c2nc(C(=O)NS(C)(=O)=O)cc(-c3ccc(N(C)C4CCOCC4)cc3)c12` [Compound 97, N-(methanesulfonyl)-4-{4-[methyl(oxan-4-yl)amino]phenyl}-1-[3-(morpholin-4-yl)phenyl]-3-(propan-2-yl)-1H-pyrazolo[3,4-b]pyridine-6-carboxamide] the same measures were 692.82%, 6.56, 444.85% and 6.40.
Regarding `CC(C)c1nn(C2CCCCC2)c2nc(C(=O)NS(C)(=O)=O)cc(-c3ccc(N4CCC(C)(C#N)CC4)nc3)c12` [Compound 98, 4-[6-(4-cyano-4-methylpiperidin-1-yl)pyridin-3-yl]-1-cyclohexyl-N-(methanesulfonyl)-3-(propan-2-yl)-1H-pyrazolo[3,4-b]pyridine-6-carboxamide], at ΔF508-CFTR [1], the “% Activation” value is 360.15% and the negative-log EC50 (pEC50) is 6.41. At ΔF508-CFTR [2], the “% Activation” value was 154% and the pEC50 is 6.26.
For `CC(C)c1nn(-c2cccc(N3CCOCC3)c2)c2nc(C(=O)NS(C)(=O)=O)cc(-c3cnc(N4CCC(C#N)CC4)nc3)c12` [Compound 99, 4-[2-(4-cyanopiperidin-1-yl)pyrimidin-5-yl]-N-(methanesulfonyl)-1-[3-(morpholin-4-yl)phenyl]-3-(propan-2-yl)-1H-pyrazolo[3,4-b]pyridine-6-carboxamide] the same measures were 601.15%, 6.47, 414.8% and 6.39.
On to `Cc1nn(-c2ccccc2)c2nc(C(=O)NS(C)(=O)=O)cc(-c3ccc(N4CCC(N(C)C)C4)cc3)c12` (stereo not drawn) [Compound 100, 4-{4-[3-(dimethylamino)pyrrolidin-1-yl]phenyl}-N-(methanesulfonyl)-3-methyl-1-phenyl-1H-pyrazolo[3,4-b]pyridine-6-carboxamide], for which, on ΔF508-CFTR [1], the “% Activation” value is 340.6% and the pEC50 is 5.49. At ΔF508-CFTR [2], the “% Activation” value is listed as 113% and the pEC50 was 5.61.
For `Cc1cccc(-n2nc(C(C)C)c3c(N4CCCCC4)cc(C(=O)NS(C)(=O)=O)nc32)c1` [Compound 101, N-(methanesulfonyl)-1-(3-methylphenyl)-4-(piperidin-1-yl)-3-(propan-2-yl)-1H-pyrazolo[3,4-b]pyridine-6-carboxamide] the same measures were 455.4%, 6.39, 254.85% and 6.08.
Take `CCS(=O)(=O)NC(=O)c1cc(N2CCCCC2)c2c(C(C)C)nn(-c3cccc(C)c3)c2n1` [Compound 102, N-(ethanesulfonyl)-1-(3-methylphenyl)-4-(piperidin-1-yl)-3-(propan-2-yl)-1H-pyrazolo[3,4-b]pyridine-6-carboxamide]: on ΔF508-CFTR [1], the “% Activation” value came to 458.75% and the pEC50 is 6.27. In addition, on ΔF508-CFTR [2], the “% Activation” value came to 233.9% and the pEC50 was 6.05.
Regarding `CS(=O)(=O)NC(=O)c1cc(-c2ccc(N3CCC(C#N)CC3)cc2)c2c(C3CCC3)nn(C3CCCCC3)c2n1` [Compound 103, 4-[4-(4-cyanopiperidin-1-yl)phenyl]-3-cyclobutyl-1-cyclohexyl-N-(methanesulfonyl)-1H-pyrazolo[3,4-b]pyridine-6-carboxamide], the figures for the “% Activation” value on ΔF508-CFTR [1] and at ΔF508-CFTR [2] were 501.03% and 263.8%, respectively. Further, the pEC50 at ΔF508-CFTR [1] is 6.39; on ΔF508-CFTR [2], 6.27.
On to `CC(C)c1nn(-c2cccc(N3CC(O)C3)c2)c2nc(C(=O)NS(C)(=O)=O)cc(-c3ccc(N4CCOCC4)cc3)c12` [Compound 105, 1-[3-(3-hydroxyazetidin-1-yl)phenyl]-N-(methanesulfonyl)-4-[4-(morpholin-4-yl)phenyl]-3-(propan-2-yl)-1H-pyrazolo[3,4-b]pyridine-6-carboxamide], for which the “% Activation” value on ΔF508-CFTR [1] amounted to 457.85%; at ΔF508-CFTR [2], 258.1%. Further, the results for the pEC50 on ΔF508-CFTR [1] and at ΔF508-CFTR [2] were 6.16 and 6.04, respectively.
